Reference: patent US20110092476A1, “Bicycloheteroaryl compounds as P2X7 modulators and uses thereof” (Renovis, Inc., priority 2006, published 2011)

Target: T1, P2X7 receptor (Homo sapiens, UniProt Q99572)
T1 construct: host or cells: THP-1 cells differentiated with LPS and IFN-γ
T1 sequence (Q99572 1-595): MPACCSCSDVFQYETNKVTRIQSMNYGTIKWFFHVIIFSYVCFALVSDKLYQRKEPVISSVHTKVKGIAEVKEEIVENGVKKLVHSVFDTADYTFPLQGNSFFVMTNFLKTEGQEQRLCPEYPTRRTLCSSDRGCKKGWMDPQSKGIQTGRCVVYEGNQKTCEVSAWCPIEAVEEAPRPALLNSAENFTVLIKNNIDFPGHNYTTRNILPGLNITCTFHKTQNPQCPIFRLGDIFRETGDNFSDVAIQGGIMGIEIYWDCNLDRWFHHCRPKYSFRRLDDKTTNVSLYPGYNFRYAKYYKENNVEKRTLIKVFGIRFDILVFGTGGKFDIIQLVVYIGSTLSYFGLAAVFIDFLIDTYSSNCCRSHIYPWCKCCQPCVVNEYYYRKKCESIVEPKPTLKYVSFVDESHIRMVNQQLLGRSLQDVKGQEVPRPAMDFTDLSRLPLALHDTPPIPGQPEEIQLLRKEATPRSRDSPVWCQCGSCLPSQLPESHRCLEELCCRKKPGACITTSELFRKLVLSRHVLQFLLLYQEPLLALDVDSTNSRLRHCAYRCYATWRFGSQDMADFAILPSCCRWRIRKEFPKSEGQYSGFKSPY
Experiment: IL-1β release assay in differentiated THP-1 cells stimulated with BzATP (Example 9)
Type: cell-based
Conditions: 0.1 μM compound (symbols *); differentiated THP-1 cells, BzATP 250 uM; read-out: IL-1β % Inhib. @ 0.3 or 0.1 uM
Procedure, shortened: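 IC50 derived by four-parameter logistic fit of percent inhibition of IL-1β release (ELISA, background-adjusted). Release triggered by 45 min BzATP at 250 uM final after 30 min compound pretreatment of THP-1 cells previously differentiated 16 h (LPS, IFN-γ, 100 ng/mL each) and re-primed 2 h with LPS.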

`COc1cc(OC)cc(C(=O)Nc2cccc3c(=O)n(CC(C)O)ccc23)c1` (stereo not drawn) [Compound 143] and `Cc1cc(C(=O)Nc2cccc3c(=O)n(CC(C)O)ccc23)ccc1F` (stereo not drawn) [Compound 175] fall in the same range of inhibition at 0.1 µM: 0 to 25% for the first, 0 to 25% for the second.

`CCOc1ccc(C(=O)Nc2cccc3c(=O)n(C(C)CO)ccc23)cc1` (stereo not drawn) [Compound 101] and `CC(CO)n1ccc2c(NC(=O)c3ccccc3Cl)cccc2c1=O` (stereo not drawn) [Compound 95] fall in the same range of inhibition at 0.1 µM: 0 to 25% for the first, 0 to 25% for the second.

First: CC(C(=O)Nc1cccc2c(=O)n(CC3(O)CCCCC3)ccc12)c1ccccc1 (stereo not drawn) [Compound 24]
Second: Cc1ccccc1CC(=O)Nc1cccc2c(=O)n(CC3(O)CCCCC3)ccc12 [Compound 89]
The inhibition at 0.1 µM of the first is higher: 26 to 50% for the first, 0 to 25% for the second.

First: Cc1cc(C)cc(CC(=O)Nc2cccc3c(=O)n(CC(C)O)ccc23)c1 (stereo not drawn) [Compound 173]
Second: Cc1ccc(CCC(=O)Nc2cccc3c(=O)n(CC(C)O)ccc23)c(C)c1 (stereo not drawn) [Compound 184]
The inhibition at 0.1 µM of the first is higher: 26 to 50% for the first, 0 to 25% for the second.

`COc1ccc(CC(=O)Nc2cccc3c(=O)n(C(C)CO)ccc23)cc1OC` (stereo not drawn) [Compound 109] and `COc1ccc(OC)c(CC(=O)Nc2cccc3c(=O)n(C(C)CO)ccc23)c1` (stereo not drawn) [Compound 108] fall in the same range of inhibition at 0.1 µM: 0 to 25% for the first, 0 to 25% for the second.

Compared with `COc1ccccc1CC(=O)Nc1cccc2c(=O)n(CC(C)O)ccc12` (stereo not drawn) [Compound 155], `Cc1ccccc1CCC(=O)Nc1cccc2c(=O)n(CC(C)O)ccc12` (stereo not drawn) [Compound 126] is higher in inhibition at 0.1 µM: 0 to 25% for the first, 26 to 50% for the second.

`Cc1ccccc1CCC(=O)Nc1cccc2c(=O)n(CC(C)(C)O)ccc12` [Compound 187] and `COc1cccc(CCC(=O)Nc2cccc3c(=O)n(CC(C)(C)O)ccc23)c1` [Compound 189] fall in the same range of inhibition at 0.1 µM: 0 to 25% for the first, 0 to 25% for the second.

`CC(O)Cn1ccc2c(NC(=O)C(C)c3ccccc3)cccc2c1=O` (stereo not drawn) [Compound 148] and `CC(O)Cn1ccc2c(NC(=O)c3ccc(-c4ccccc4)cc3)cccc2c1=O` (stereo not drawn) [Compound 146] fall in the same range of inhibition at 0.1 µM: 0 to 25% for the first, 0 to 25% for the second.

`Cc1ccc(Cl)c(C(=O)Nc2cccc3c(=O)n(CC(C)O)ccc23)c1` (stereo not drawn) [Compound 178] and `CC(O)Cn1ccc2c(NC(=O)c3cc4cc(Cl)ccc4o3)cccc2c1=O` (stereo not drawn) [Compound 181] fall in the same range of inhibition at 0.1 µM: 0 to 25% for the first, 0 to 25% for the second.

`CC(CO)n1ccc2c(NC(=O)CCCc3ccccc3)cccc2c1=O` (stereo not drawn) [Compound 111] and `COc1ccccc1CCC(=O)Nc1cccc2c(=O)n(CC3(O)CCCCC3)ccc12` [Compound 87] fall in the same range of inhibition at 0.1 µM: 0 to 25% for the first, 0 to 25% for the second.

For `CCOc1ccc(C(=O)Nc2cccc3c(=O)n(CC4(O)CCCCC4)ccc23)cc1` [Compound 21], the inhibition at 0.1 µM was 0 to 25%.

Same assay, conditions: 0.1 μM compound; differentiated THP-1 cells, BzATP 250 uM; "*" symbols; read-out: IL-1β % Inhib. @ 0.3 or 0.1 uM

Compared with `CC(C)(O)Cn1ccc2c(NC(=O)c3cc(Cl)ccc3Cl)cccc2c1=O` [Compound 199], `CC(C)(O)Cn1ccc2c(NC(=O)c3ccccc3Cl)cccc2c1=O` [Compound 197] is higher in inhibition at 0.1 µM: 0 to 25% for the first, 51 to 75% for the second.

`CC(C)(O)Cn1ccc2c(NC(=O)c3ccc4ccccc4c3)cccc2c1=O` [Compound 206] and `CC(C)(O)Cn1ccc2c(NC(=O)c3cc4ccccc4o3)cccc2c1=O` [Compound 217] fall in the same range of inhibition at 0.1 µM: 0 to 25% for the first, 0 to 25% for the second.

Compared with `CC(C)(O)Cn1ccc2c(NC(=O)Cc3ccc4c(c3)OCO4)cccc2c1=O` [Compound 218], `CCOc1ccc(CC(=O)Nc2cccc3c(=O)n(CC(C)(C)O)ccc23)cc1` [Compound 215] is higher in inhibition at 0.1 µM: 0 to 25% for the first, 26 to 50% for the second.

`CC(C)(O)Cn1ccc2c(NC(=O)c3cccc4c3OCCO4)cccc2c1=O` [Compound 222] and `COc1ccc(C(=O)Nc2cccc3c(=O)n(CC(C)(C)O)ccc23)cc1C` [Compound 227] fall in the same range of inhibition at 0.1 µM: 0 to 25% for the first, 0 to 25% for the second.

Same assay, conditions: 0.3 μM compound (symbols +); differentiated THP-1 cells, BzATP 250 uM; read-out: IL-1β % Inhib. @ 0.3 or 0.1 uM

First: O=C(Cc1cc(C(F)(F)F)cc(C(F)(F)F)c1)Nc1cccc2c(=O)n(CCO)ccc12 [Compound 64]
Second: O=C(Cc1cc(C(F)(F)F)ccc1Cl)Nc1cccc2c(=O)n(CCO)ccc12 [Compound 67]
The inhibition at 0.3 µM of the first is higher: 51 to 75% for the first, 0 to 25% for the second.

`Cc1ccc(Cl)cc1C(=O)Nc1cccc2c(=O)n(CC3(O)CCCCC3)ccc12` [Compound 52] and `Cc1cccc(C(=O)Nc2cccc3c(=O)n(CC4(O)CCCCC4)ccc23)c1Cl` [Compound 55] fall in the same range of inhibition at 0.3 µM: 0 to 25% for the first, 0 to 25% for the second.

`COc1ccc(CC(=O)Nc2cccc3c(=O)n(CC4(O)CCCCC4)ccc23)c(OC)c1` [Compound 47] and `COc1ccc(C(=O)Nc2cccc3c(=O)n(CC4(O)CCCCC4)ccc23)c(C)c1` [Compound 56] fall in the same range of inhibition at 0.3 µM: 0 to 25% for the first, 0 to 25% for the second.

Compared with `COc1c(C)cc(C(=O)Nc2cccc3c(=O)n(CC4(O)CCCCC4)ccc23)cc1C` [Compound 40], `O=C(CCCc1ccccc1)Nc1cccc2c(=O)n(CC3(O)CCCCC3)ccc12` [Compound 36] is higher in inhibition at 0.3 µM: 0 to 25% for the first, 26 to 50% for the second.

`COc1ccc(CC(=O)Nc2cccc3c(=O)n(CCO)ccc23)cc1` [Compound 2] and `COc1cccc(CC(=O)Nc2cccc3c(=O)n(CCO)ccc23)c1` [Compound 75] fall in the same range of inhibition at 0.3 µM: 0 to 25% for the first, 0 to 25% for the second.

`O=C(Nc1cccc2c(=O)n(CCO)ccc12)C1(c2ccc(Cl)cc2)CCCC1` [Compound 79] and `CS(=O)(=O)c1ccc(CCC(=O)Nc2cccc3c(=O)n(CCO)ccc23)cc1` [Compound 71] fall in the same range of inhibition at 0.3 µM: 0 to 25% for the first, 0 to 25% for the second.

Same assay, conditions: 0.3 μM compound; differentiated THP-1 cells, BzATP 250 uM; "+" symbols; read-out: IL-1β % Inhib. @ 0.3 or 0.1 uM

First: O=C(Cc1ccc(Cl)c(Cl)c1)Nc1c(Cl)ccc2c(=O)n(CCO)ccc12 [Compound 248]
Second: CC(C)(CO)n1ccc2c(NC(=O)Cc3ccc(Cl)c(Cl)c3)cccc2c1=O [Compound 371]
The inhibition at 0.3 µM of the first is lower: 0 to 25% for the first, 51 to 75% for the second.

`CC(=O)NCCn1ccc2c(NC(=O)Cc3ccc(F)c(F)c3)cccc2c1=O` [Compound 392] and `CNCCn1ccc2c(NC(=O)Cc3ccc(Cl)c(C(F)(F)F)c3)cccc2c1=O` [Compound 235, 2-(4-Chloro-3-trifluoromethyl-phenyl)-N-[2-(2-methylamino-ethyl)-1-oxo-1,2-dihydro-isoquinolin-5-yl]-acetamide] cannot be ordered by inhibition at 0.3 µM: over 76% for the first, over 76% for the second.

`O=C(Cc1ccc(Cl)c(C(F)(F)F)c1)Nc1cccc2c(=O)n(CC3CCNCC3)ccc12` [Compound 257, 2-(4-Chloro-3-trifluoromethyl-phenyl)-N-(1-oxo-2-piperidin-4-ylmethyl-1,2-dihydro-isoquinolin-5-yl)-acetamide] and `C[C@@H](C(N)=O)n1ccc2c(NC(=O)Cc3ccc(F)c(C(F)(F)F)c3)cccc2c1=O` [Compound 348] cannot be ordered by inhibition at 0.3 µM: over 76% for the first, over 76% for the second.

First: C[C@H](C(=O)Nc1cccc2c(=O)n([C@@H](C(N)=O)c3ccccc3)ccc12)c1ccc(Cl)cc1 [Compound 279, (S)—N-[2-((R)-Carbamoyl-phenyl-methyl)-1-oxo-1,2-dihydro-isoquinolin-5-yl]-2-(4-chloro-phenyl)-propionamide]
Second: CC(C(=O)Nc1cccc2c(=O)n(C(CO)CO)ccc12)c1ccc(Cl)cc1 (stereo not drawn) [Compound 231]
The inhibition at 0.3 µM of the first is higher: over 76% for the first, 26 to 50% for the second.

`C[C@H](C(N)=O)n1ccc2c(NC(=O)Cc3cccc(Cl)c3)cccc2c1=O` [Compound 255] and `C[C@@H](C(N)=O)n1ccc2c(NC(=O)Cc3ccc(F)c(Cl)c3)cccc2c1=O` [Compound 346] cannot be ordered by inhibition at 0.3 µM: over 76% for the first, over 76% for the second.

Compared with `C[C@H](C(N)=O)n1ccc2c(NC(=O)Cc3ccc(C#N)cc3)cccc2c1=O` [Compound 287], `C[C@H](C(N)=O)n1ccc2c(NC(=O)Cc3ccc(-c4ccccc4)cc3)cccc2c1=O` [Compound 289] is higher in inhibition at 0.3 µM: 26 to 50% for the first, over 76% for the second.

First: C[C@H](C(N)=O)n1ccc2c(NC(=O)Cc3ccccc3F)cccc2c1=O [Compound 294]
Second: C[C@H](C(N)=O)n1ccc2c(NC(=O)Cc3ccc(F)cc3F)cccc2c1=O [Compound 293]
The inhibition at 0.3 µM of the first is lower: 26 to 50% for the first, over 76% for the second.

`C[C@H](C(N)=O)n1ccc2c(NC(=O)Cc3ccccn3)cccc2c1=O` [Compound 309] and `C[C@H](C(N)=O)n1ccc2c(NC(=O)c3cccc4ncccc34)cccc2c1=O` [Compound 272] fall in the same range of inhibition at 0.3 µM: 0 to 25% for the first, 0 to 25% for the second.

`CC(C)(CO)n1ccc2c(NC(=O)Cc3ccc(C(F)(F)F)cc3F)cccc2c1=O` [Compound 370] and `C[C@H](C(N)=O)n1ccc2c(NC(=O)Cc3ccc(F)c(F)c3F)cccc2c1=O` [Compound 379] cannot be ordered by inhibition at 0.3 µM: over 76% for the first, over 76% for the second.

Compared with `C[C@H](C(N)=O)n1ccc2c(NC(=O)Cc3cccc(OC(F)(F)F)c3)cccc2c1=O` [Compound 313], `C[C@H](C(=O)Nc1cccc2c(=O)n([C@H](C)C(=O)NC3CC3)ccc12)c1ccc(Cl)cc1` [Compound 308, (R)-2-{5-[(S)-2-(4-Chloro-phenyl)-propionylamino]-1-oxo-1H-isoquinolin-2-yl}-N-cyclopropyl-propionamide] is higher in inhibition at 0.3 µM: 0 to 25% for the first, 51 to 75% for the second.

Same assay, conditions: THP-1 cells, BzATP 250 uM, IL-1β by ELISA

First: CC(=O)NCCn1ccc2c(NC(=O)Cc3ccc(F)c(F)c3)cccc2c1=O [Compound 392]
Second: O=C(Nc1cccc2c(=O)n(CCO)ccc12)C1(c2ccc(Cl)cc2)CCCC1 [Compound 79]
The IC50 of the first is lower: 0.74 nM for the first, over 1000 nM for the second. The first is the more potent here.
